Data from US6831190B1, “Guanidinomethyl cyclohexane carboxylic acid ester derivatives” (Teikoku Chemical Industries Co., Ltd., priority 1994, dated 2004).
Converted amounts (≈) assume the structure as drawn. Read-outs that look alike come from different tables or passages of the source.

Tests used:
Format in all cases: cell-based
[1] = test system: Helicobacter pylori ATCC 43629; assay: MIC, agar plating dilution (standard method of Japanese Chemotherapy Academy)
Description: (§1) 1. Minimum Inhibitory Concentration (MIC) was measured in accordance with the standard method of Japanese Chemotherapy Academy (Chemotherapy, 29: 76-79, 1981). Sensitivity was measured with an agar plating dilution using Brain-Heart Infusion agar (Difco Co.) which was added 0.1% of cyclodextrin. […] of the solutions of the compounds which were obtained in examples of the present invention was prepared by dissolving in dimethylsulfoxide. […] Each of 1 ml of those prepared solutions was dispensed in share, after sterilization, 9 ml of sensitivity measuring medium which is kept at 50° C. was added to each, and they were sufficiently mixed. The mixture was used as a plate for measuring sensitivity. Brain Heart Infusion agar medium (Difco Co.), which was added 0.1% of cyclodextrin, was used as bacteria growing medium, and was cultured under microair at 37° C. for three days, and the number of bacteria thereof was adjusted to about 106/ml. This was used as a bacterial solution for inoculation. The medium was painted in each square about 2 cm with nichromic line loop. The medium was cultured under microair for three days at 37° C.

[2] = test system: Helicobacter pylori ATCC 43504; assay: as above
Description: as §1

[3] = test system: Escherichia coli NIH JC-2; assay: MIC, standard method of Japanese Chemotherapy Academy; details: Objected Strain 3: Escherichia coli NIH JC-2
Description: (§2) 1. Minimum Inhibitory Concentration (MIC) was measured in accordance with the standard method of Japanese Chemotherapy Academy (Chemotherapy, 29: 76-79, 1981).

[4] = test system: Helicobacter pylori No. 3; assay: MIC, agar plating dilution, clinical segregation strain
Description: (§3) Minimum Inhibitory Concentration (MIC) was measured in accordance with the standard method of Japanese Chemotherapy Academy (Chemotherapy, 29: 76-79, 1981). Sensitivity was measured with an agar plating dilution using Brain-Heart Infusion agar (Difco Co.) which was added 0.1% of cyclodextrin. […] of the solutions of the compounds which were obtained in examples of the present invention was prepared by dissolving in dimethylsulfoxide. […] Each of 1 ml of those prepared solutions was dispensed in share, after sterilization, 9 ml of sensitivity measuring medium which is kept at 50° C. was added to each, and they were sufficiently mixed. The mixture was used as a plate for measuring sensitivity. Brain Heart Infusion agar medium (Difco Co.), which was added 0.1% of cyclodextrin, was used as bacteria growing medium, and was cultured under microair at 37° C. for three days, and the number of bacteria thereof was adjusted to about 106/ml. This was used as a bacterial solution for inoculation. The medium was painted in each square about 2 cm with nichromic line loop. The medium was cultured under microair for three days at 37° C. […] The each result is shown at Table 4.

[5] = test system: Helicobacter pylori No. 20; assay: as above
Description: as §3

[6] = test system: Helicobacter pylori No. 1; assay: as above
Description: as §3

[7] = test system: Helicobacter pylori No. 19; assay: as above
Description: as §3

[8] = test system: Helicobacter pylori No. 2; assay: as above
Description: as §3

[9] = test system: Helicobacter pylori No. 28; assay: as above
Description: as §3

[10] = test system: Helicobacter pylori No. 4; assay: as above
Description: as §3

[11] = test system: Staphylococcus aureus 209PJC; assay: MIC, standard method of Japanese Chemotherapy Academy; details: Strain 11: Staphylococcus aureus 209PJC
Description: as §2
(§4) And MIC of the compounds of Example 3, 36, 8, 14, 17, 21, 41 and 45 were measured.

[12] = test system: Staphylococcus aureus ATCC 6538; assay: as above; details: Strain 12: Staphylococcus aureus ATCC 6538
Description: as §2, §4

[13] = test system: Bacillus subtilis ATCC 6633; assay: as above; details: for MIC: Strain 13: Bacillus subtilis ATCC 6633; for MIC against bacillus subcillus ATCC 6633: standard method of Japanese Chemotherapy Academy
Description: as §2, §4

[14] = test system: Staphylococcus aureus No. 2 (MRSA); assay: as above; details: Strain 14: Staphylococcus aureus No. 2 (MRSA)
Description: as §2, §4

[15] = Objected Strain 2: Helicobacter pylori ATCC 43629
[16] = Objected Strain 1: Helicobacter pylori ATCC 43504
[17] = Strain 6: Helicobacter pylori No. 3
[18] = Strain 9: Helicobacter pylori No. 20
[19] = Strain 4: Helicobacter pylori No. 1
[20] = Strain 8: Helicobacter pylori No. 19
[21] = Strain 5: Helicobacter pylori No. 2
[22] = Strain 10: Helicobacter pylori No. 28
[23] = Strain 7: Helicobacter pylori No. 4

Row | SMILES | MIC [1, 15] | MIC [2, 16] | MIC [3] | MIC [4, 17] | MIC [5, 18] | MIC [6, 19] | MIC [7, 20] | MIC [8, 21] | MIC [9, 22] | MIC [10, 23] | MIC [11] | MIC [12] | MIC [13] | MIC [14] | MIC against bacillus subcillus ATCC 6633 [13] | also measured
1 | CC1(C)S[C@@H]2[C@H](NC(=O)[C@H](N)c3ccc(O)cc3)C(=O)N2[C@H]1C(=O)O [Amoxicillin, amoxicillin, reference compound] |  |  |  |  |  |  |  |  |  |  |  |  |  |  |  | MIC ([1]; ATCC43629, Objected Strain 2: Helicobacter pylori ATCC 43629, read-out: MIC): 0.025 µg/mL (≈ 0.0684 µM); MIC ([2]; ATCC43504, Objected Strain 1: Helicobacter pylori ATCC 43504, read-out: MIC): 0.05 µg/mL (≈ 0.137 µM); MIC ([4]; Strain 6: Helicobacter pylori No. 3, read-out: MIC): 0.025 µg/mL (≈ 0.0684 µM); MIC ([5]; Strain 9: Helicobacter pylori No. 20, read-out: MIC): 0.025 µg/mL (≈ 0.0684 µM); MIC ([6]; Strain 4: Helicobacter pylori No. 1, read-out: MIC): 0.1 µg/mL (≈ 0.274 µM); MIC ([7]; Strain 8: Helicobacter pylori No. 19, read-out: MIC): 0.025 µg/mL (≈ 0.0684 µM); MIC ([8]; Strain 5: Helicobacter pylori No. 2, read-out: MIC): 0.1 µg/mL (≈ 0.274 µM); MIC ([9]; Strain 10: Helicobacter pylori No. 28, read-out: MIC): 0.05 µg/mL (≈ 0.137 µM); MIC ([10]; Strain 7: Helicobacter pylori No. 4, read-out: MIC): 0.05 µg/mL (≈ 0.137 µM); MIC ([11]; read-out: MIC): 0.1 µg/mL (≈ 0.274 µM); MIC ([12]; ATCC6538, read-out: MIC): 0.05 µg/mL (≈ 0.137 µM); MIC ([13]; ATCC6633, read-out: MIC): 0.05 µg/mL (≈ 0.137 µM); MIC ([14]; read-out: MIC): 0.2 µg/mL (≈ 0.547 µM)
2 | Cl.N=C(N)NC[C@H]1CC[C@H](C(=O)Oc2ccc(-c3ccc(C(=O)OCCc4ccc(Cl)cc4)cc3)cc2)CC1 [Example 45, trans-4-guanidinomethyl cyclohexane carboxylic acid[4-[4-[2-(4-chlorophenyl)ethyloxycarbonyl)phenyl]phenylester].hydrochloride] | 0.39 µg/mL | 0.39 µg/mL | >25 µg/mL | 0.39 µg/mL | 0.20 µg/mL | 0.39 µg/mL | 0.20 µg/mL | 0.39 µg/mL | 0.39 µg/mL | 3.13 µg/mL | >25 µg/mL | >25 µg/mL | >25 µg/mL | >25 µg/mL |  | 
3 | Cl.N=C(N)NC[C@H]1CC[C@H](C(=O)Oc2ccc(-c3ccc(Cl)cc3)cc2)CC1 [Example 8, trans-4-guanidinomethyl cyclohexane carboxylic acid [4-(4-chlorophenyl)phenylester].hydrochloride] | 0.39 µg/mL | 0.78 µg/mL | >25 µg/mL | 0.10 µg/mL | 0.39 µg/mL | 0.10 µg/mL | 0.20 µg/mL | 0.39 µg/mL | 0.39 µg/mL | 0.39 µg/mL | 0.78 µg/mL | 1.56 µg/mL | 6.25 µg/mL | 1.56 µg/mL |  | 
4 | Cc1ccccc1COC(=O)c1ccc(-c2ccc(OC(=O)[C@H]3CC[C@H](CNC(=N)N)CC3)cc2)cc1.Cl [Example 43, trans-4-guanidinomethyl cyclohexane carboxylic acid[4-[4-(2-methylbenzyloxycarbonyl)phenyl]phenylester].hydrochloride] | 0.39 µg/mL | 0.20 µg/mL | >25 µg/mL | 0.20 µg/mL | 0.39 µg/mL | 0.20 µg/mL | 0.10 µg/mL | 0.20 µg/mL | 0.39 µg/mL | 0.78 µg/mL |  |  |  |  |  | 
5 | Cc1cccc(COC(=O)c2ccc(-c3ccc(OC(=O)[C@H]4CC[C@H](CNC(=N)N)CC4)cc3)cc2)c1.Cl [Example 44, trans-4-guanidinomethyl cyclohexane carboxylic acid[4-[4-(3-methylbenzyloxycarbonyl)phenyl]phenylester].hydrochloride] | 0.20 µg/mL | 0.20 µg/mL | >25 µg/mL | 0.20 µg/mL | 0.20 µg/mL | 0.39 µg/mL | 0.20 µg/mL | 0.39 µg/mL | 0.39 µg/mL | 0.78 µg/mL |  |  |  |  |  | 
6 | CC(C)(C)c1ccc(COC(=O)c2ccc(-c3ccc(OC(=O)[C@H]4CC[C@H](CNC(=N)N)CC4)cc3)cc2)cc1.Cl [Example 17, trans-4-guanidinomethyl cyclohexane carboxylic acid [4-[4-(4-t-butylbenzyloxy carbonyl)phenyl]phenylester].hydrochloride] | 0.39 µg/mL | 0.78 µg/mL | >25 µg/mL | 0.20 µg/mL |  | 0.20 µg/mL |  | 0.39 µg/mL |  | 0.20 µg/mL | >25 µg/mL | >25 µg/mL | >25 µg/mL | >25 µg/mL | > 25 µg/mL | 

Further lines, with some results ahead:

Row | MIC [1, 15] | MIC [2, 16] | MIC [3] | MIC [4, 17] | MIC [5, 18] | MIC [6, 19] | MIC [7, 20] | MIC [8, 21] | MIC [9, 22] | MIC [10, 23] | MIC [11] | MIC [12] | MIC [13] | MIC [14] | MIC against bacillus subcillus ATCC 6633 [13] | SMILES | also measured
7 | 0.78 µg/mL | 0.78 µg/mL | >25 µg/mL | 0.20 µg/mL | 0.20 µg/mL | 0.39 µg/mL | 0.39 µg/mL | 0.39 µg/mL | 0.39 µg/mL | 3.13 µg/mL |  |  |  |  |  | Cc1ccc(CCOC(=O)c2ccc(-c3ccc(OC(=O)[C@H]4CC[C@H](CNC(=N)N)CC4)cc3)cc2)cc1.Cl [Example 46, trans-4-guanidinomethyl cyclohexane carboxylic acid[4-[4-[2-(4-methylphenyl)ethyloxycarbonyl)phenyl]phenylester].hydrochloride] | 
8 | 0.39 µg/mL | 0.78 µg/mL | >25 µg/mL | 0.10 µg/mL |  | 0.20 µg/mL |  | 0.39 µg/mL |  | 0.39 µg/mL | 3.13 µg/mL | 6.25 µg/mL | 25 µg/mL | 3.13 µg/mL | > 25 µg/mL | Cl.N=C(N)NC[C@H]1CC[C@H](C(=O)Oc2ccc(-c3ccc(C(=O)OCc4ccccc4)cc3)cc2)CC1 [Example 3, trans-4-guanidinomethyl cyclohexane carboxylic acid [4-(4-benzyloxycarbonylphenyl)phenylester].hydrochloride] | 
9 | 0.78 µg/mL (≈ 2.16 µM) | 0.78 µg/mL (≈ 2.16 µM) | 0.10 µg/mL (≈ 0.277 µM) | 25.0 µg/mL (≈ 69.2 µM) | 0.78 µg/mL (≈ 2.16 µM) | 0.78 µg/mL (≈ 2.16 µM) | 0.78 µg/mL (≈ 2.16 µM) | 12.5 µg/mL (≈ 34.6 µM) | 1.56 µg/mL (≈ 4.32 µM) | 0.78 µg/mL (≈ 2.16 µM) | 0.39 µg/mL (≈ 1.08 µM) | 0.10 µg/mL (≈ 0.277 µM) | 0.10 µg/mL (≈ 0.277 µM) | 12.5 µg/mL (≈ 34.6 µM) |  | CC1COc2c(N3CCN(C)CC3)c(F)cc3c(=O)c(C(=O)O)cn1c23 (stereo not shown) [Ophroxacine, ophroxacine, reference compound] | 
10 | 0.78 µg/mL | 0.39 µg/mL | >25 µg/mL | 0.10 µg/mL |  | 0.20 µg/mL |  | 0.39 µg/mL |  | 0.39 µg/mL | 25 µg/mL | >25 µg/mL | >25 µg/mL | >25 µg/mL | > 25 µg/mL | Cl.N=C(N)NC[C@H]1CC[C@H](C(=O)Oc2ccc(-c3ccc(C(=O)OCc4ccc(C(F)(F)F)cc4)cc3)cc2)CC1 [Example 21, trans-4-guanidinomethyl cyclohexane carboxylic acid [4-[4-(4-trifuluoromethyl benzyloxycarbonyl)phenyl]phenylester].hydrochloride] | 
